≈ marks a conversion by molar mass, not a printed value. Numbered stars: 1 amine (or outer) side, 2 acyl side, 3 side chain; on linkers, the order of the positions; unused ones are H or OH. Bridge positions count the residues as written; N and C are the ends. Square brackets hold non-standard residues; d marks the D form. Peptide text beside a SMILES is read from it. * marks the point of attachment. Phe(3-Me) = Cc1cccc(C[C@H](N)C(=O)O)c1; Pro(4R-Me) = C[C@H]1CN[C@H](C(=O)O)C1; Hyp = O=C(O)[C@@H]1C[C@@H](O)CN1; NH(4-Cl-phenyl) = Clc1ccc(N*)cc1; NH(4-Me-phenyl) = Cc1ccc(N*)cc1; NH(4-F-phenyl) = Fc1ccc(N*)cc1; aThr = C[C@H](O)[C@H](N)C(=O)O; Pip = O=C(O)[C@@H]1CCCCN1; CO = O=C([*:1])[*:2]
Tests used:
S. aureus ΔClpP = test: Minimal inhibitory concentration, microbroth dilution; type: cell-based, Staphylococcus aureus; conditions: MIC; ClpP inactivated
Procedure: (§1) Minimal inhibitory concentrations (“MICs”) were determined using the microbroth dilution method according to Clinical Laboratory Standards Institute (CLSI; National, C.F. C. L. S., Methods for Dilution Antimicrobial Susceptibility Tests for Bacteria Grow aerobically-Seventh Edition: Approved Standard M7-A7, CLSI, Wayne, Pa., USA, 2008) and were read by visual inspection. Two fold serial dilutions of test compound in 100 μL of the appropriate broth media were first prepared in 96-well round bottom microtiter plates (Nalgene Nunc International, Rochester, N.Y., USA). An equivalent volume (100 μL) of bacterial broth inocula containing approximately 10^5 bacterial cfu/mL was added to each well to give final concentrations of test compound starting at 200 μM. The plates were then incubated aerobically at 37° C. All strains were incubated overnight. After incubations, in all cases the MIC was recorded as the lowest concentration of drug that prevented bacterial growth. The bacterial strains for which MIC was determined as described in Table 4.

E. faecails = test: as above; type: cell-based; conditions: Enterococcus faecalis, read-out: Minimal Inhibitory Concentrations (μM) E. faecails, MIC
Procedure: as §1

MRSA NRS70 = test: as above; type: cell-based; conditions: Staphylococcus aureus, read-out: Minimal Inhibitory Concentrations (μM) MRSA NRS70, MIC
Procedure: as §1

S. aureus ATCC 29213 = test: as above; type: cell-based; conditions: Staphylococcus aureus, ATCC29213, read-out: Minimal Inhibitory Concentrations (μM) S. aureus ATCC 29213, MIC
Procedure: as §1

S. aureus USA 300 = test: as above; type: cell-based; conditions: Staphylococcus aureus, USA300, read-out: Minimal Inhibitory Concentrations (μM) S. aureus USA 300, MIC
Procedure: as §1

S. aureus ClpP (Sa-ClpP) = molecular target: T1, S. aureus ClpP (Sa-ClpP) (Staphylococcus aureus, UniProt Q2G036); test: Casein-BODIPY digestion assay (ClpP activation); type: biochemical
T1 construct: made in house; host or cells: E. coli BL21 (DE3)
T1 sequence (Q2G036 whole entry): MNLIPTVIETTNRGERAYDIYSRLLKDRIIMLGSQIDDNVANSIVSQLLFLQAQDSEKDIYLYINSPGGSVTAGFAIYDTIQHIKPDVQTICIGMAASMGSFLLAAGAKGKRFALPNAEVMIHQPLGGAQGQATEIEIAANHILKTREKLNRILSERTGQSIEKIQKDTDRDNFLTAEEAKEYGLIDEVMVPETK
Procedure: The compounds were assayed in a casein digestion assay in order to determine their effect on ClpP activation. Briefly, the assay was carried out using S. aureus ClpP (“Sa-ClpP”) overexpressed in E. coli BL21 (DE3) and purified in a two-step process. Purity of the protein was assessed through SDS PAGE analysis. EC50 evaluations were conducted in triplicate in a 20 μl assay format using a method adapted from Maurizi et al. (Methods Enzymol. (1994) 244:314-331). Each well contained 10 μM saClpP, 25 μg/ml BODIPY FL casein (Invitrogen Corporation, San Diego, Calif.), and test compound in concentrations ranging between 0-1000 μM in assay buffer (50 mM Tris pH 8, 200 mM KCl, and 1 mM TCEP). The reaction took place at 37° C. Fluorescence (excitation 485 nm; emission 528 nm) was measured in five minute intervals over a 45 min period using a BioTek HT fluorescence microplate reader (BioTek Instruments, Inc., Winooski, Vt.). Velocity of each reaction was calculated and data was fit to a dose response curve using GraphPad Prism® software (GraphPad Software, Inc., La Jolla, Calif.). EC50 is the effective concentration of compound which causes 50% activation of S. aureus ClpP in the foregoing BODIPY FL casein assay.
Alternatively, the assay was carried out using EnzCheck Protease Assay (Molecular Probes, Catalog # E6638). The assay was performed in black 384 well, flat bottom, low volume plates (Greiner Bio-One, Monroe, N.C., catalog #784076). 10 μL of Tris.HCl buffer, pH 8.0 with 0.01% Triton X-100 was pipetted into each well using a Well-Mate (Thermo Scientific, Waltham, Mass.). 0.4 μL test compounds or controls (2% DMSO v/v) were added to each well using a Biomek FX liquid handling robot (Beckman Coulter, Indianapolis, Ind.). After addition of test compounds and controls, 10 μL of master mix containing 2 μM Sa-ClpP and 2 μM substrate (Bodipy-FL labeled casein) in Tris.HCl buffer, pH 8.0 with 0.01% (v/v) Triton X-100, was pipetted into each well. All assays were performed in triplicate, under linear velocity conditions. Increase in fluorescent signal following activation of Sa-ClpP by test compounds and controls was measured over time period of 30 mins using filters with excitation at 485±15 nm and emission at 520±25 nm on a PHERAstar FS Multilabel reader (BMG, Cary, N.C.). Instrument gains and enzyme linear velocity conditions were determined and validated using ADEP4, a known Sa-ClpP activator. Data analysis was done by measuring rate of casein degradation over time (slopes). Computed degradation rates (slopes) were normalized to positive (ADEP4) or negative (DMSO) controls. Using nonlinear regression curve fitting EC50 values and % activation were determined using the equation “log [agonist] vs. Response-variable slope (four parameters)-symmetrical” in the program Prism 6 (GraphPad Software, La Jolla, Calif. USA, www.graphpad.com).

| SMILES | Minimal Inhibitory Concentrations (μM) S. aureus ΔClpP (S. aureus ΔClpP) | MIC (E. faecails) | MIC (MRSA NRS70) | MIC (S. aureus ATCC 29213) | MIC (S. aureus USA 300) | EC50 (S. aureus ClpP (Sa-ClpP)) |
| --- | --- | --- | --- | --- | --- | --- |
| Cc1ccc(NC(=O)N[C@@H](Cc2cccc(C)c2)C(=O)N[C@@H]2C(=O)N3C[C@H](O)C[C@H]3C(=O)N3CCCC[C@H]3C(=O)N[C@@H](C)C(=O)N3CCC[C@H]3C(=O)O[C@H]2C)cc1 [Compound 51, (S)—N-((6S,8AS,14AS,16R,20S,21S,23AS)-16-HYDROXY-6,21-DIMETHYL-5,8,14,19,23-PENTAOXOOCTADECAHYDRO-1H,5H,14H,19H-PYRIDO[2,1-I]DIPYRROLO[2,1-C:2′,1′-L][1]OXA[4,7,10,13]TETRAAZACYCLOHEXADECIN-20-YL)-3-(M-TOLYL)-2-(3-(P-TOLYL)UREIDO)PROPANAMIDE] ({NH(4-Me-phenyl)-CO}-[Phe(3-Me)][aThr][Hyp][Pip]AP; ester 2-C) | >20 µM | 5 µM (≈ 3.94 µg/mL) | 2.5 µM (≈ 1.97 µg/mL) | 5 µM (≈ 3.94 µg/mL) | 5 µM (≈ 3.94 µg/mL) |  |
| Cc1cccc(C[C@H](NC(=O)Nc2ccc(Cl)cc2)C(=O)N[C@@H]2C(=O)N3C[C@H](O)C[C@H]3C(=O)N3CCCC[C@H]3C(=O)N[C@@H](C)C(=O)N3CCC[C@H]3C(=O)O[C@H]2C)c1 [Compound 59, (S)-2-(3-(4-CHLOROPHENYL)UREIDO)-N-((6S,8AS,14AS,16R,20S,21S,23AS)-16-HYDROXY-6,21-DIMETHYL-5,8,14,19,23-PENTAOXOOCTADECAHYDRO-1H,5H,14H,19H-PYRIDO[2,1-I]DIPYRROLO[2,1-C:2′,1′-L][1]OXA[4,7,10,13]TETRAAZACYCLOHEXADECIN-20-YL)-3-(M-TOLYL)PROPANAMIDE] ({NH(4-Cl-phenyl)-CO}-[Phe(3-Me)][aThr][Hyp][Pip]AP; ester 2-C) |  | 5 µM (≈ 4.04 µg/mL) | 1.25 µM (≈ 1.01 µg/mL) | 2.5 µM (≈ 2.02 µg/mL) | 1.25 µM (≈ 1.01 µg/mL) | 810 ± 500 nM |
| Cc1cccc(C[C@H](NC(=O)Nc2ccc(F)cc2)C(=O)N[C@@H]2C(=O)N3C[C@H](O)C[C@H]3C(=O)N3CCCC[C@H]3C(=O)N[C@@H](C)C(=O)N3C[C@H](C)C[C@H]3C(=O)O[C@H]2C)c1 [Compound 79, (S)-2-(3-(4-FLUOROPHENYL)UREIDO)-N-((2R,6S,8AS,14AS,16R,20S,21S,23AS)-16-HYDROXY-2,6,21-TRIMETHYL-5,8,14,19,23-PENTAOXOOCTADECAHYDRO-1H,5H,14H,19H-PYRIDO[2,1-I]DIPYRROLO[2,1-C:2′,1′-L][1]OXA[4,7,10,13]TETRAAZACYCLOHEXADECIN-20-YL)-3-(M-TOLYL)PROPANAMIDE] ({NH(4-F-phenyl)-CO}-[Phe(3-Me)][aThr][Hyp][Pip]A[Pro(4R-Me)]; ester 2-C) |  |  |  |  |  | 900 ± 600 nM |
| Cc1cccc(C[C@H](NC(=O)Nc2cccc(Cl)c2)C(=O)N[C@H]2COC(=O)[C@@H]3C[C@@H](C)CN3C(=O)[C@H](C)NC(=O)[C@@H]3CCCCN3C(=O)[C@@H]3CCCN3C2=O)c1 [Compound 72, (S)-2-(3-(3-CHLOROPHENYL)UREIDO)-N-((2R,6S,8AS,14AS,20S,23AS)-2,6-DIMETHYL-5,8,14,19,23-PENTAOXOOCTADECAHYDRO-1H,5H,14H,19H-PYRIDO[2,1-I]DIPYRROLO[2,1-C:2′,1′-L][1]OXA[4,7,10,13]TETRAAZACYCLOHEXADECIN-20-YL)-3-(M-TOLYL)PROPANAMIDE] | >20 µM | 10 µM (≈ 7.92 µg/mL) | 2.5 µM (≈ 1.98 µg/mL) | 2.5 µM (≈ 1.98 µg/mL) | 2.5 µM (≈ 1.98 µg/mL) |  |

— patent publication US10570179B2, “Substituted urea depsipeptide analogs as activators of the CLPP endopeptidase” (priority 2016, dated 2020)
